This is an account of results in patent US5071965A, “Novel TC-99M complexes” (Mallinckrodt Medical, Inc., priority 1989, dated 1991).

One data set in a line: Biodistribution of Tc-99m complexes in guinea pigs (heart uptake, heart/blood). To be noted: complex made from the reduced ligand.
Experimental: The procedures used for determining biodistribution are as follows.
Guinea Pigs--The guinea pigs are anesthetized and the technetium complex is injected into the jugular vein after a cutdown. The animals are sacrificed after 5 minutes and the organs removed and counted as with the rats.
For guinea pigs, significant heart uptake is determined if the percentage of technetium in the heart is greater than 0.5% and the heart/blood ratio is greater than 1.
For the compound `CCCOCC(CNCc1ccccc1O)(CNCc1ccccc1O)CNCc1ccccc1O` [Example 96, 1,1,1-tris(2-hydroxyphenylmethylaminomethyl)-2-propoxyethane], the “guinea pig biodistributions, compared with the complex of Example 95” value is “identical”.

The same data set, now with this note: jugular vein injection, 5 minutes, Tc-99m complex.
For `COCCCCC(CN=Cc1ccccc1O)(CN=Cc1ccccc1O)CN=Cc1ccccc1O` (centres unmarked), the “5 Minute Guinea Pig % HT Uptake” value came to 1.66%. On the same count and under the same terms, for `CCCOCC(CN=Cc1ccc(OC)cc1O)(CN=Cc1ccc(OC)cc1O)CN=Cc1ccc(OC)cc1O` (centres unmarked) the value was 0.87%; for `COc1c(O)c(C=NCC(C)(CN=Cc2c(O)c(OC)c(OC)c(OC)c2OC)CN=Cc2c(O)c(OC)c(OC)c(OC)c2OC)c(OC)c(OC)c1OC` (centres unmarked) [2,3,4,5-tetramethoxyphenol, 6,6'-[[2-[[[(3,4,5,6-tetramethoxy-2-hydroxyphenyl)methylene]amino]methyl]-2-methyl-1,3-propanediyl]bis(nitrilomethylidyne)]bis-], 1.24%. On the same count and under the same terms, as for `Oc1c(F)cc(F)cc1C=NCC(CN=Cc1cc(F)cc(F)c1O)(CN=Cc1cc(F)cc(F)c1O)COCc1ccccc1` (centres unmarked) [2,4-difluorophenol, 2,2'-[[2-[[[(3,5-difluoro-2-hydroxyphenyl)methylene]amino]methyl]-2-phenylmethoxymethyl-1,3-propanediyl]bis(nitrilomethylidyne)]bis-], the figure is 1.72%. Still for that read-out and setting: for `CCOc1cccc(C=NCC(C)(CN=Cc2cccc(OCC)c2O)CN=Cc2cccc(OCC)c2O)c1O` (centres unmarked) [2-ethoxyphenol, 6,6'-[[2-[[[(3-ethoxy-2-hydroxyphenyl)methylene]amino]methyl]-2-methyl-1,3-propanediyl]bis(nitrilomethylidyne)]bis-] the value was 0.50%; for `CCc1cccc(C=NCC(C)(CN=Cc2cccc(CC)c2O)CN=Cc2cccc(CC)c2O)c1O` (centres unmarked) [2-ethylphenol, 6,6'-[[2-[[[3-ethyl-2-hydroxyphenyl)methylene]amino]methyl]2-methyl-1,3-propanediyl]bis(nitrilomethylidyne)]bis-], 0.47%; for `COc1cc(COCC(CN=Cc2c(O)cc(OC)c(OC)c2OC)(CN=Cc2c(O)cc(OC)c(OC)c2OC)CN=Cc2c(O)cc(OC)c(OC)c2OC)cc(OC)c1OC` (centres unmarked) [3,4,5-trimethoxyphenol, 2,2'-[[2-[[[(4,5,6-trimethoxy-2-hydroxyphenyl)methylene]amino]methyl]-2-(3,4,5-trimethoxyphenyl)methoxymethyl-1,3-propanediyl]bis(nitrilomethylidyne)]bis-], 0.98%. Turning to `COc1ccc(COCC(CN=Cc2c(O)cc(OC)c(OC)c2OC)(CN=Cc2c(O)cc(OC)c(OC)c2OC)CN=Cc2c(O)cc(OC)c(OC)c2OC)cc1` (centres unmarked) [3,4,5-trimethoxyphenol, 2,2'-[[2-[[[(4,5,6-trimethoxy-2-hydroxyphenyl)methylene]amino]methyl]-2-(4-methoxyphenyl)methoxymethyl-1,3-propranediyl]bis(nitrilomethylidyne)]bis-], the “5 Minute Guinea Pig % HT Uptake” value amounted to 1.04%.

For `COCC(CN=Cc1c(O)cc(OC)c(OC)c1OC)(CN=Cc1c(O)cc(OC)c(OC)c1OC)CN=Cc1c(O)cc(OC)c(OC)c1OC` (centres unmarked) [3,4,5-trimethoxyphenol, 2,2'-[[2-[[[(4,5,6-trimethoxy-2-hydroxyphenyl)methylene]amino]methyl]-2-methoxymethyl-1,3-propanediyl]bis(nitrilomethylidyne)]bis-], the “5 Minute Guinea Pig % HT Uptake” value is 0.86%. Still for that read-out and setting: as for `COc1cc(O)c(C=NCC(C)(CN=Cc2c(O)cc(OC)c(OC)c2OC)CN=Cc2c(O)cc(OC)c(OC)c2OC)c(OC)c1OC` (centres unmarked) [3,4,5-trimethoxyphenol, 2,2'-[[2-[[[(4,5,6-trimethoxy-2-hydroxyphenyl)methylene]amino]methyl]-2-methyl-1,3-propanediyl]bis(nitrilomethylidyne)]bis-], the figure is 1.57%; as for `COc1cc(O)c(C=NCC(CN=Cc2c(O)cc(OC)c(OC)c2OC)(CN=Cc2c(O)cc(OC)c(OC)c2OC)COCc2ccccc2)c(OC)c1OC` (centres unmarked) [3,4,5-trimethoxyphenol, 2,2'-[[2-[[[(4,5,6-trimethoxy-2-hydroxyphenyl)methylene]amino]methyl]-2-phenylmethoxymethyl-1,3-propanediyl]bis(nitrilomethylidyne)]bis-], 0.60%.

Regarding `COc1cc(O)c(C=NCC(C)(CN=Cc2c(O)cc(OC)c(C)c2OC)CN=Cc2c(O)cc(OC)c(C)c2OC)c(OC)c1C` (centres unmarked) [3,5-dimethoxy-4-methyl-phenol, 2,2'-[[2-[[[(4,6-dimethoxy-5-methyl-2-hydroxyphenyl)methylene]amino]methyl]-2-methyl-1,3-propanediyl]bis(nitrilomethylidyne)]bis-], the “5 Minute Guinea Pig % HT Uptake” value was found to be 0.84%.

On to `CCCOCC(CN=Cc1c(O)cc(OC)cc1OC)(CN=Cc1c(O)cc(OC)cc1OC)CN=Cc1c(O)cc(OC)cc1OC` (centres unmarked) [3,5-dimethoxyphenol, 2,2'-[[2-[[[(4,6-dimethoxy-2-hydroxyphenyl)methylene]amino]methyl]-2-propoxymethyl-1,3-propanediyl]bis(nitrilomethylidyne)]bis-], for which the “5 Minute Guinea Pig % HT Uptake” value is 1.21%. Still for that read-out and setting: as for `COc1c(C)cc(O)c(C=NCC(C)(CN=Cc2c(O)cc(C)c(OC)c2C)CN=Cc2c(O)cc(C)c(OC)c2C)c1C` (centres unmarked) [3,5-dimethyl-4-methoxyphenol, 2,2'-[[2-[[[(4,6-dimethyl-5-methoxy-2-hydroxyphenyl)methylene]amino]methyl]-2-methyl-1,3-propanediyl]bis(nitrilomethylidyne)]bis-], the figure is 1.07%; as for `CN(C)c1ccc(C=NCC(C)(CN=Cc2ccc(N(C)C)cc2O)CN=Cc2ccc(N(C)C)cc2O)c(O)c1` (centres unmarked) [3-Dimethylaminophenol, 6,6'-[[2-[[[(4-dimethylamino-2-hydroxy-phenyl)methylene]amino]methyl]-2-methyl-1,3-propanediyl]bis-(nitrilomethylidyne)]bis-], 0.72%; as for `CCOc1ccc(C=NCC(C)(CN=Cc2ccc(OCC)cc2O)CN=Cc2ccc(OCC)cc2O)c(O)c1` (centres unmarked) [3-Ethoxyphenol, 6,6'-[[2[[[(4-ethoxy-2-hydroxyphenyl)methylene]amino]methyl-2-methyl-1,3-propanediyl]bis(nitrilomethylidyne)]bis-], 0.98%.

`CCCOCC(CN=Cc1ccc(C)cc1O)(CN=Cc1ccc(C)cc1O)CN=Cc1ccc(C)cc1O` (centres unmarked) [3-Methylphenol, 6,6'-[[2-[[[(4-methyl-2-hydroxyphenyl)methylene]amino]methyl]-2-propoxymethyl-1,3-propanediyl]bis(nitrilomethylidyne)]bis-]: the “5 Minute Guinea Pig % HT Uptake” value amounted to 1.79%.

Regarding `COC(C)(C)Cc1ccc(O)c(C=NCC(C)(CN=Cc2cc(CC(C)(C)OC)ccc2O)CN=Cc2cc(CC(C)(C)OC)ccc2O)c1` (centres unmarked) [4-(2-methoxy-2-methyl-propyl)phenol, 2,2'-[[2-[[[(5-(2-methoxy-2-methyl-propyl)-2-hydroxyphenyl)methylene]amino]methyl]-2-methyl-1,3-propanediyl]bis(nitrilomethylidyne)]bis-], the “5 Minute Guinea Pig % HT Uptake” value came to 0.49%.

As to `CCCOCC(CN=Cc1cc(OC)ccc1O)(CN=Cc1cc(OC)ccc1O)CN=Cc1cc(OC)ccc1O` (centres unmarked) [4-Methoxyphenyl, 2,2'-[[2-[[[(5-methoxy-2-hydroxyphenyl)methylene]amino]methyl] -2-propoxymethyl-1,3-propanediyl]bis(nitrilomethylidyne)]bis-], the “5 Minute Guinea Pig % HT Uptake” value is on record as 1.52%. On the same count and under the same terms, for `Oc1ccc(F)cc1C=NCC(CN=Cc1cc(F)ccc1O)(CN=Cc1cc(F)ccc1O)COCc1ccccc1` (centres unmarked) [4-fluorophenol, 2,2'-[[2-[[[(5-fluoro-2-hydroxyphenyl)methylene]amino]methyl]-2-phenylmethoxymethyl-1,3-propanediyl]bis(nitrilomethylidyne)]bis-] the value was 1.14%; for `CC(C)COCC(CN=Cc1ccccc1O)(CN=Cc1ccccc1O)CN=Cc1ccccc1O` (centres unmarked) [Phenol, 2,2'-[[2-[[[(2-hydroxyphenyl)methylene]amino]methyl]-2-(2-methylpropoxy)methyl-1,3-propandiyl]bis(nitrilomethylidyne)]-], 1.72%.

As for `CCCCCOCC(CN=Cc1ccccc1O)(CN=Cc1ccccc1O)CN=Cc1ccccc1O` (centres unmarked) [Phenol, 2,2'-[[2-[[[(2-hydroxyphenyl)methylene]amino]methyl]-2-pentyloxymethyl-1,3-propandiyl]bis(nitrilomethylidyne)]bis-], the “5 Minute Guinea Pig % HT Uptake” value was determined as 1.22%.

For the compound `CCC(C)OCC(CN=Cc1ccccc1O)(CN=Cc1ccccc1O)CN=Cc1ccccc1O` (centres unmarked) [Phenol, 2,2'-[[2-[[[(2-hydroxyphenyl)methylene]amino]methyl]-(1-methylpropoxy)methyl-1,3-propanediyl]bis(nitrilomethylidyne)]bis-], the “5 Minute Guinea Pig % HT Uptake” value worked out at 1.55%. As for `CC(C)OCC(CN=Cc1ccccc1O)(CN=Cc1ccccc1O)CN=Cc1ccccc1O` (centres unmarked) [Phenol, 2,2'-[[2[[[(2-hydroxyphenyl)methylene]amino]methyl]-2-(1-methylethoxy)methyl-1,3-propanediyl]bis(nitrilomethylidyne)]bis-], the “5 Minute Guinea Pig % HT Uptake” value amounted to 0.57%. Regarding `CCCCCC(CN=Cc1ccccc1O)(CN=Cc1ccccc1O)CN=Cc1ccccc1O` (centres unmarked) [Phenol, 2,2'-[[2[[[(2-hydroxyphenyl)methylene]amino]methyl]-2-pentyl-1,3-propanediyl]bis(nitrilomethylidyne)]bis-], the “5 Minute Guinea Pig % HT Uptake” value is 1.15%.

In the case of `CCCCOCC(CN=Cc1ccccc1O)(CN=Cc1ccccc1O)CN=Cc1ccccc1O` (centres unmarked) [Phenol, 2,2'[[-[[[(2-hydroxyphenyl)methylene]amino]methyl]-2-butoxymethyl-1,3-propandiyl]bis(nitrilomethylidyne)]bis-], the “5 Minute Guinea Pig % HT Uptake” value is recorded as 1.463%. Still for that read-out and setting: for `Cc1ccc(C=NCC(C)(CN=Cc2ccc(C)cc2O)CN=Cc2ccc(C)cc2O)c(O)c1` (centres unmarked) [R5=H, R6=CH3, R7=H, R8=H, R3=H, R4=CH3, 3-Methylphenol, 6,6'-[[2-[[[(4-methyl-2-hydroxyphenyl)methylene]amino]methyl]-2-methyl-1,3-propanediyl]bis(nitrilomethylidyne)]bis-] the value was 1.51%; for `CC(CN=Cc1cc(C(F)(F)F)ccc1O)(CN=Cc1cc(C(F)(F)F)ccc1O)CN=Cc1cc(C(F)(F)F)ccc1O` (centres unmarked) [R5=H, R6=H, R7=CF3, R8=H, R3=H, R4=CH3], 0.51%.
